Earlier results on one molecule are cited in patent publication US12296046B2, “Micro-emulsion containing creatine fatty-ester, method for preparing said micro-emulsion and uses thereof” (COMMISSARIAT À L'ÉNERGIE ATOMIQUE ET AUX ÉNERGIES …, priority 2018, dated 2025).

This data set relates to CrT−/y mice. As to conditions: 30 mg/kg, intracerebroventricular administration.

`CCCCCCCCCCCCOC(=O)CN(C)C(=N)N` [DCE, dodecyl creatine ester]: the “performance in the object recognition task” value is given as “significantly improves the performance”.
